Holding throughout (format): functional
For one assay, the system named is KB. Put plainly: Cytotoxicity against human KB cells. The note with it: read-out: ED50 (the source's name).
Assay [1] has as its system P388. Put plainly: Cytotoxicity against mouse P388 cells. The note with it: read-out: ED50 (the source's name).
The test system of assay [2] is P388. Put plainly: Cytotoxicity against mouse P388 cells in in vivo based assay at 1.56 mg/kg relative to control.
The subject of assay [3] is P388. Put plainly: Cytotoxicity against mouse P388 cells in in vivo based assay at 0.78 mg/kg relative to control.

Values after ≈ are worked out from the molar mass of the structure shown.

The T/C is the ratio of treated to control.

As for `CC[C@@]1(O)C(=O)OCc2c1cc1n(c2=O)Cc2cc3c(OC)cccc3nc2-1`, the EC50 in the assay on KB turned out to be 0.17 µg/mL (≈ 0.449 µM); in the assay on P388 [1], 0.53 µg/mL (≈ 1.4 µM).

For `CC[C@@]1(O)C(=O)OCc2c1cc1n(c2=O)Cc2cc3ccccc3nc2-1` [CAMPTOTHECIN], the T/C with P388 [2] worked out at 181%; in the assay with P388 [3], 175%.

The values above are taken from ChEMBL document CHEMBL1158653, “Plant anticancer agents X. Isolation of camptothecin and 9-methoxycamptothecin from Ervatamia heyneana” (1979).
